From the supplement of paper PMC11061612 come the findings set out here.

Experiment in all cases: Bliss excess, mean over the matrix (fraction); higher = more synergy
The test system of test [1] is AMO-1 (Plasma Cell Myeloma). The method in brief:
(§1)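 Cell lines in DMEM/F12 or RPMI with 10% FBS were plated in 1536-well plates, held 24 hours at 37°C, 5% CO2, then given two-drug dose matrices for 72 hours (DMSO typically 0.2%). Viability was read by CellTiter-Glo 2.0 luminescence and scaled as inhibition from 0 (vehicle wells) to 1 (blank wells). Combination Emax is the second-highest inhibition in the matrix; Bliss excess is observed combination effect minus expected EA + EB − EA·EB, EA and EB being single-agent effects.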

The test system of test [2] is SW13 (Other Solid Carcinomas). In a few lines:
as §1

For test [3], the system named is BT-549 (Breast Carcinoma). In a few lines: as §1
In test [4] the test system is PANC-04-03 (Pancreatic Carcinoma). The method in brief:
as §1

Test [5] has as its system KYSE-450 (Esophageal Squamous Cell Carcinoma). In a few lines:
as §1

Test [6] deals with NCI-H727 (Other Solid Carcinomas). The method in brief:
as §1

The subject of test [7] is UACC-62 (Melanoma). The method in brief:
as §1

The test system of test [8] is Ca9-22 (Head and Neck Carcinoma). In a few lines:
as §1

Test [9] deals with YH-13 (Glioblastoma). The method in brief:
as §1

The subject of test [10] is RF-48 (B-Cell Non-Hodgkin's Lymphoma). In a few lines:
as §1

For test [11], the system named is TGW (Neuroblastoma). The method in brief: as §1
The subject of test [12] is MIA-PaCa-2 (Pancreatic Carcinoma). The method in brief:
as §1

The subject of test [13] is ACHN (Kidney Carcinoma). The method in brief:
as §1

Test [14] deals with KARPAS-299 (T-Cell Non-Hodgkin's Lymphoma). The method in brief: as §1
The subject of test [15] is MLMA (Other Blood Carcinomas). In a few lines:
as §1

Turning to `C[C@@H](Nc1cc(F)cc(F)c1)c1cc(C(=O)N(C)C)cc2c(=O)cc(N3CCOCC3)oc12` [AZD8186] + CC(=O)c1c(C)c2cnc(Nc3ccc(N4CCNCC4)cn3)nc2n(C2CCCC2)c1=O [Palbociclib] (first compound max 10 µM, 7x7, partner max 10 µM), the Bliss excess is 0.126 in test [1]; 0.044 in test [2]; 0.0464 in [3]; 0.0107 in test [4]; -0.0404 in [5]; 0.0923 in test [6]. Besides, the Bliss excess was 0.0303 in test [7]; 0.021 in test [8]; 0.0183 in test [9]; 0.0054 in [10]; -0.0397 in test [11]; 0.0485 in [12]. Further, the Bliss excess came out at 0.0335 in [13], 0.0912 in test [14] and 0.0443 in [15].
With `C[C@@H](Oc1cc(-c2cnn(C3CCNCC3)c2)cnc1N)c1c(Cl)ccc(F)c1Cl` [Crizotinib] + CC1=C(C(=CC=C1)Cl)NC(=O)C2=CN=C(S2)NC3=CC(=NC(=N3)C)N4CCN(CC4)CCO [Dasatinib] (first compound max 10 µM, 7x7, partner max 2 µM), the Bliss excess in [1] was -0.0368; in [2], -0.0173; in test [3], 0.0139; in [4], -0.0683; in [5], 0.0276; in test [6], -0.0009. The Bliss excess in [7] is -0.0656; in [8] it was 0.0635; in [9] it was 0.107; in [10] it was -0.119; in [11] it was -0.0593; in [12], 0.0119. Also, the Bliss excess is 0.0041 in [13], -0.0263 in test [14] and -0.0411 in [15].
Regarding `C[C@@H](Oc1cc(-c2cnn(C3CCNCC3)c2)cnc1N)c1c(Cl)ccc(F)c1Cl` [Crizotinib] + Cn1cnc2c(F)c(Nc3ccc(Br)cc3Cl)c(C(=O)NOCCO)cc21 [Selumetinib] (first compound max 10 µM, 7x7, partner max 10 µM), the Bliss excess is 0.0122 in [1]; -0.0324 in [2]; -0.063 in test [3]; -0.0194 in test [4]; -0.0241 in test [5]; -0.0226 in [6]. Further, the Bliss excess in test [7] was -0.0229; in test [8], -0.0286; in test [9], -0.0111; in test [10] it was -0.0548; in test [11], -0.0252; in [12], 0.0058. Besides, the Bliss excess in test [13] is 0.0277; in test [14], -0.032; in test [15], -0.116.
Turning to `CS(=O)(=O)CCNCc1ccc(-c2ccc3ncnc(Nc4ccc(OCc5cccc(F)c5)c(Cl)c4)c3c2)o1` [Lapatinib] + Cn1cnc2c(F)c(Nc3ccc(Br)cc3Cl)c(C(=O)NOCCO)cc21 [Selumetinib] (first compound max 10 µM, 7x7, partner max 10 µM), the Bliss excess in test [1] was 0.0408; in test [2], 0.0429; in test [3], -0.0473; in [4], 0.0145; in [5] it was -0.016; in [6], 0.0299. In addition, the Bliss excess in test [7] was -0.0119; in test [8], 0.0498; in [9], -0.0095; in [10] it was -0.0137; in [11] it was -0.079; in [12], 0.0484. Moreover, the Bliss excess was found to be 0.0251 in test [13], 0.0736 in test [14] and 0.0059 in [15].
Regarding `O=C(c1cc(Cc2n[nH]c(=O)c3ccccc23)ccc1F)N1CCN(C(=O)C2CC2)CC1` [Olaparib] + CC1(C)CCC(CN2CCN(c3ccc(C(=O)NS(=O)(=O)c4ccc(NCC5CCOCC5)c([N+](=O)[O-])c4)c(Oc4cnc5[nH]ccc5c4)c3)CC2)=C(c2ccc(Cl)cc2)C1 [Venetoclax] (first compound max 10 µM, 7x7, partner max 1 µM), the Bliss excess in [1] is -0.0074; in [2], -0.0309; in [3] it was -0.0516; in [4] it was -0.0318; in [5], -0.0499; in test [6], -0.0383. Moreover, the Bliss excess is -0.007 in [7]; 0.0323 in test [8]; -0.0207 in test [9]; 0.118 in test [10]; -0.0225 in test [11]; -0.0208 in test [12]. For the same compound, the Bliss excess in [13] was -0.0214; in test [14], 0.0277; in test [15], -0.0299.
With `O=C(c1cc(Cc2n[nH]c(=O)c3ccccc23)ccc1F)N1CCN(C(=O)C2CC2)CC1` [Olaparib] + CN(CC[C@H](CSC1=CC=CC=C1)NC2=C(C=C(C=C2)S(=O)(=O)NC(=O)C3=CC=C(C=C3)N4CCC(CC4)[C@H](C5=CC=CC=C5C6=CC=C(C=C6)Cl)O)S(=O)(=O)C(F)(F)F)CCO [AZD4320] (first compound max 10 µM, 7x7, partner max 1 µM), the Bliss excess in test [1] is -0.0111; in test [2], -0.0566; in test [3], -0.0365; in test [4], -0.0555; in test [5] it was -0.0434; in test [6] it was -0.052. Besides, the Bliss excess in test [7] was -0.0105; in [8] it was 0.006; in test [9], 0.0012; in [10] it was 0.0454; in test [11], -0.0479; in [12], 0.002. Besides, the figures for the Bliss excess in test [13], in test [14] and in test [15] were -0.0164, 0.109 and -0.0619, respectively.
Turning to `O=C(c1cc(Cc2n[nH]c(=O)c3ccccc23)ccc1F)N1CCN(C(=O)C2CC2)CC1` [Olaparib] + COc1nnc2ccc(N3CCC(c4ccc(OCCN5CCN(C)C(=O)[C@H]5C)cc4)CC3)nn12 [AZD5153] (first compound max 10 µM, 7x7, partner max 1 µM), the Bliss excess in test [1] was -0.0334; in [2], -0.0183; in test [3], -0.0697; in [4] it was -0.0698; in test [5], -0.0606; in [6] it was -0.0452. In addition, the Bliss excess in test [7] is 0.0387; in test [8], -0.0495; in test [9], -0.0114; in test [10], -0.0374; in test [11], -0.054; in [12] it was -0.0233. The Bliss excess in test [13] is -0.0367; in test [14] it was -0.0654; in test [15], -0.0697.
For the compound `O=C(c1cc(Cc2n[nH]c(=O)c3ccccc23)ccc1F)N1CCN(C(=O)C2CC2)CC1` [Olaparib] + Cc1c2c(nn1C)CSCc1cc(n(C)n1)CSc1cc(c3ccccc3c1)OCCCc1c(C(=O)O)n(C)c3c-2c(Cl)ccc13 [AZD5991] (first compound max 10 µM, 7x7, partner max 1 µM), the Bliss excess in test [1] was -0.0124; in test [2] it was 0.0104; in [3], -0.0223; in [4] it was -0.0554; in test [5] it was -0.0409; in test [6] it was -0.0269. Moreover, the Bliss excess in test [7] was -0.0089; in [8] it was 0.0247; in [9], -0.0298; in [10], -0.108; in test [11] it was -0.032; in [12] it was -0.0205. Further, the Bliss excess in [13] is -0.0218; in [14], 0.0202; in [15], -0.0744.
